Tested on: HEK293 cells
Test: HEK293 VLCFA-LPC IC50 determination (13C-labeled C26:0 LPC by UHPLC/MS)
Assay type: cell-based, human
Conditions: Homo sapiens, HEK293, HEK293 cells; average of one or more replicates; read-out: Average HEK293 IC50
How it was run: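 Suspension HEK293 cells (final 0.5 million/mL after mixing with equal volume) incubated 48 hours with compound plus 13C-acetate (1.0 mg/mL in added media), shaking at 37° C. Lipids extracted with hexane/isopropanol or methanol, C13:0 LPC standard. UHPLC/MS of 13C-labeled C26:0 LPC (638.500/104.100 m/z); IC50 by four-parameter fit.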

Q: With `O=C(Nc1ccn(-c2ccc(F)c(Cl)c2)n1)C1(c2ccccc2)CC1` [Compound 200, N-[1-(3-chloro-4-fluoro-phenyl)pyrazol-3-yl]-1-phenyl-cyclopropanecarboxamide] as the compound, how does the IC50 read?
A: The IC50 was 700 nM.

Q: `Cc1cnn(CC(=O)Nc2ccn(-c3ccccc3)n2)c1` [Compound 290, 2-(4-methylpyrazol-1-yl)-N-(1-phenylpyrazol-3-yl)acetamide] was tested. Which IC50 did it give?
A: The IC50 was over 5000 nM.

Q: `O=C(Nc1ccn(-c2ccc(F)c(F)c2)n1)C1(c2cccs2)CC1` [Compound 479, N-[1-(3,4-difluorophenyl)pyrazol-3-yl]-1-(2-thienyl)cyclopropanecarboxamide] was tested. Which IC50 did it give?
A: The IC50 was 190 nM.

Q: How did the IC50 turn out when `CCC(C(=O)Nc1ccn(-c2ccnc(F)c2)n1)c1ccccc1` (stereo not shown) [Compound 171, N-[1-(2-fluoro-4-pyridyl)pyrazol-3-yl]-2-phenyl-butanamide] was run?
A: Its IC50 is 140 nM.

Q: Which IC50 does the source give for `O=C(Nc1ccn(-c2ccccc2)n1)C1(c2ccc(Cl)cc2)CCCC1` [Compound 79, 1-(4-chlorophenyl)-N-(1-phenylpyrazol-3-yl)cyclopentanecarboxamide] here?
A: The IC50 was over 5000 nM.

Q: For `O=C(Nc1ccn(-c2ccccc2)n1)C1(c2ccncc2F)CC1` [Compound 280, 1-(3-fluoro-4-pyridyl)-N-(1-phenylpyrazol-3-yl)cyclopropanecarboxamide], which IC50 is on record?
A: Its IC50 is 770 nM.

Q: With `CC(C)(C(=O)Nc1ccn(-c2ccccc2)n1)c1ccccc1F` [Compound 296, 2-(2-fluorophenyl)-2-methyl-N-(1-phenylpyrazol-3-yl)propanamide] as the compound, how does the IC50 read?
A: The IC50 was 1700 nM.

Q: How did the IC50 turn out when `Cn1cccc1CC(=O)Nc1ccn(-c2ccnc(F)c2)n1` [Compound 309, N-[1-(2-fluoro-4-pyridyl)pyrazol-3-yl]-2-(1-methylpyrrol-2-yl)acetamide] was run?
A: Its IC50 is over 5000 nM.

Q: `O=C(Cc1ccccc1)Nc1ccn(-c2cncnc2)n1` [Compound 96, 2-phenyl-N-(1-pyrimidin-5-ylpyrazol-3-yl)acetamide] was tested. Which IC50 did it give?
A: Its IC50 is 2400 nM.

Q: How did the IC50 turn out when `O=C(Nc1ccn(-c2cc(F)cc(F)c2)n1)C1(c2ccc(F)cn2)CC1` [Compound 487, N-[1-(3,5-difluorophenyl)pyrazol-3-yl]-1-(5-fluoro-2-pyridyl)cyclopropanecarboxamide] was run?
A: Its IC50 is 1200 nM.

Q: Which IC50 does the source give for `CC(C)(C(=O)Nc1ccn(-c2ccccc2)n1)c1ccccc1` [Compound 30, 2-methyl-2-phenyl-N-(1-phenyl-1H-pyrazol-3-yl)propanamide] here?
A: The IC50 was 320 nM.

Q: Which IC50 does the source give for `N#Cc1cccc(C2(C(=O)Nc3ccn(-c4ccnc(F)c4)n3)CC2)c1` [Compound 243, 1-(3-cyanophenyl)-N-[1-(2-fluoro-4-pyridyl)pyrazol-3-yl]cyclopropanecarboxamide] here?
A: The IC50 was 310 nM.

Q: Which IC50 does the source give for `O=C(Cc1ccc(F)cc1)Nc1ccn(-c2ncccc2F)n1` [Compound 88, 2-(4-fluorophenyl)-N-[1-(3-fluoro-2-pyridyl)pyrazol-3-yl]acetamide] here?
A: Its IC50 is over 5000 nM.

Q: `O=C(Nc1ccn(-c2ccnc(F)c2)n1)[C@@]1(c2ccccc2)CC12CCC2` [Compound 151, (2S)-N-[1-(2-fluoro-4-pyridyl)pyrazol-3-yl]-2-phenyl-spiro[2.3]hexane-2-carboxamide] was tested. Which IC50 did it give?
A: Its IC50 is under 50 nM.

Q: With `O=C(Nc1ccn(-c2cncc(F)c2)n1)C1(c2ccc(F)cn2)CC1` [Compound 466, 1-(5-fluoro-2-pyridyl)-N-[1-(5-fluoro-3-pyridyl)pyrazol-3-yl]cyclopropanecarboxamide] as the compound, how does the IC50 read?
A: The IC50 was 560 nM.

Q: With `COc1cc(-n2ccc(NC(=O)C3(c4cccs4)CC3)n2)ccn1` [Compound 478, N-[1-(2-methoxy-4-pyridyl)pyrazol-3-yl]-1-(2-thienyl)cyclopropanecarboxamide] as the compound, how does the IC50 read?
A: Its IC50 is 120 nM.

Q: Which IC50 does the source give for `O=C(Nc1ccn(-c2ccccc2)n1)C1(c2ccccc2)CC1` [Compound 2, 1-phenyl-N-(1-phenyl-1H-pyrazol-3-yl)cyclopropane-1-carboxamide] here?
A: The IC50 was 20 nM.

Q: Which IC50 does the source give for `O=C(Nc1ccn(-c2ccccn2)n1)C1(c2ccccc2F)CC1` [Compound 210, 1-(2-fluorophenyl)-N-[1-(2-pyridyl)pyrazol-3-yl]cyclopropanecarboxamide] here?
A: Its IC50 is 170 nM.

Q: How did the IC50 turn out when `COc1cccc(CC(=O)Nc2ccn(-c3ccccc3)n2)c1` [Compound 46, 2-(3-methoxyphenyl)-N-(1-phenylpyrazol-3-yl)acetamide] was run?
A: The IC50 was over 5000 nM.

From US20180251431A1 (VERTEX PHARMACEUTICALS INCORPORATED, priority 2016, published 2018)
